Test results from PubChem BioAssay AID652211 (Johns Hopkins Ion Channel Center, 2013).
Activity calls are given as the source filed them.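 The calls were made as follows: active = lowers flux through the TASK3 potassium channel at some tested dose, with a dose response curve; inactive = no inhibition at any dose or no dose response.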

Biological target: Potassium channel subfamily K member 9 (Homo sapiens) (UniProt Q9NPC2)
Assay: KCNK9 flux blockade, concentration-response – cell-based, FluxOR thallium flux, selectivity assay for TASK1 inhibitor project, SAR follow-up (AID 652211)
Conditions: KCNK9-expressing cells, FluxOR thallium flux fluorescence

Potassium channel subfamily K member 9 (Homo sapiens), sequence (Q9NPC2 whole entry, looked up): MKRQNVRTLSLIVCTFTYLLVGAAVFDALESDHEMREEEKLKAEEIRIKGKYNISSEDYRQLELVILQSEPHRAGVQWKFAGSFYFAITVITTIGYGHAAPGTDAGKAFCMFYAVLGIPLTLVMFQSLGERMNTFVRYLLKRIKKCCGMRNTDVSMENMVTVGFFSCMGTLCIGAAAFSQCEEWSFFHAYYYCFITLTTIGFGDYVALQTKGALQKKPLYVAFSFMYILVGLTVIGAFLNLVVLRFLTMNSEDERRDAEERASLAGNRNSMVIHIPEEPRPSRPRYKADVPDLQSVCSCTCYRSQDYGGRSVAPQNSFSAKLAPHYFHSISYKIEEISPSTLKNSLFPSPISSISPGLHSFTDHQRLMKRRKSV

Q: For `CC(C)c1ccccc1C(=O)Nc1cccc(NC(=O)c2ccccc2OC(F)(F)F)c1`, which IC50 is on record?
A: 730 nM

Q: How did the IC50 turn out when `Cc1cccc(C(=O)Nc2cccc(NC(=O)c3cccc(F)c3)c2)c1` was run?
A: 600 nM

Same assay, conditions: KCNK9-expressing cells, FluxOR thallium flux fluorescence; at 30 µM (top of the series)

Q: How did the “thallium flux ratio, lower = inhibition” value turn out when `O=C(Nc1cccc(NC(=O)c2ccncc2)c1)c1ccccc1` was run?
A: inactive

Q: `CCOc1ccccc1NC(=O)c1cccc(NC(=O)C2CCCO2)c1` (centres undefined) was tested. Which “thallium flux ratio, lower = inhibition” value did it give?
A: inactive

Q: `O=C(Nc1cccc(NC(=O)c2ccc(Cl)cc2)c1)c1ccccc1` was tested. Which “thallium flux ratio, lower = inhibition” value did it give?
A: inactive

Q: How did the “thallium flux ratio, lower = inhibition” value turn out when `O=C(Nc1cccc(NC(=O)c2cccc(F)c2)c1)c1ccccc1` was run?
A: inactive

Q: `O=C(Nc1cccc(NC(=O)c2ccco2)c1)c1ccccc1` was tested. Which “thallium flux ratio, lower = inhibition” value did it give?
A: inactive

Q: How did the “thallium flux ratio, lower = inhibition” value turn out when `O=C(Nc1cccc(NC(=O)c2ccsc2)c1)c1ccccc1` was run?
A: inactive

Q: `Cc1cccc(C(=O)Nc2cccc(NC(=O)c3ccc(Cl)cc3)c2)c1` was tested. Which “thallium flux ratio, lower = inhibition” value did it give?
A: inactive

Q: Which “thallium flux ratio, lower = inhibition” value does the source give for `CCOc1ccccc1NC(=O)c1cccc(NC(=O)c2ccc(Cl)cc2)c1` here?
A: inactive

Q: With `Cc1cccc(C(=O)Nc2cccc(NC(=O)c3ccc(N(C)C)cc3)c2)c1` as the compound, how does the “thallium flux ratio, lower = inhibition” value read?
A: inactive

Q: How did the “thallium flux ratio, lower = inhibition” value turn out when `COc1ccccc1C(=O)Nc1cc(NC(=O)c2ccccc2C(C)C)ccc1F` was run?
A: inactive

Q: How did the “thallium flux ratio, lower = inhibition” value turn out when `CCOc1ccc(NC(=O)c2cccc(NC(=O)C3CCCC3)c2)cc1` was run?
A: inactive

Q: `CCOc1ccccc1NC(=O)c1cccc(C(=O)NC2CCCC2)c1` was tested. Which “thallium flux ratio, lower = inhibition” value did it give?
A: inactive

Q: `O=C(Nc1cccc(NC(=O)c2cccc(Cl)c2)c1)c1ccccc1` was tested. Which “thallium flux ratio, lower = inhibition” value did it give?
A: inactive

Q: With `CCOc1ccccc1NC(=O)c1cccc(NC(=O)c2ccc(C(F)(F)F)cc2)c1` as the compound, how does the “thallium flux ratio, lower = inhibition” value read?
A: inactive

Q: `CC(C)(C)c1ccc(C(=O)Nc2cccc(NC(=O)c3ccccc3)c2)cc1` was tested. Which “thallium flux ratio, lower = inhibition” value did it give?
A: inactive

Q: With `O=C(Nc1cccc(NC(=O)c2cccnc2)c1)c1ccccc1` as the compound, how does the “thallium flux ratio, lower = inhibition” value read?
A: inactive

Q: Which “thallium flux ratio, lower = inhibition” value does the source give for `Cc1cccc(C(=O)Nc2cccc(NC(=O)c3ccc(C(F)(F)F)cc3)c2)c1` here?
A: inactive

Q: `CCOc1ccccc1NC(=O)c1cccc(NC(=O)c2ccc(OC)cc2)c1` was tested. Which “thallium flux ratio, lower = inhibition” value did it give?
A: inactive

Q: For `O=C(Nc1cccc(NC(=O)c2cccs2)c1)c1ccccc1`, which “thallium flux ratio, lower = inhibition” value is on record?
A: inactive

Q: For `Cc1cccc(C(=O)Nc2ccccc2NC(=O)c2ccccc2)c1`, which “thallium flux ratio, lower = inhibition” value is on record?
A: inactive

Q: `Cc1cccc(NC(=O)c2cccc(NC(=O)c3ccccc3)c2)c1` was tested. Which “thallium flux ratio, lower = inhibition” value did it give?
A: inactive

Q: For `Cc1cccc(C(=O)Nc2ccccc2C(=O)Nc2ccccc2)c1`, which “thallium flux ratio, lower = inhibition” value is on record?
A: inactive

Q: Which “thallium flux ratio, lower = inhibition” value does the source give for `COc1ccc(C(=O)Nc2cccc(NC(=O)c3cccc(C)c3)c2)cc1` here?
A: inactive

Q: How did the “thallium flux ratio, lower = inhibition” value turn out when `O=C(Nc1cccc(NC(=O)c2ccc(F)cc2)c1)c1ccccc1` was run?
A: inactive

Q: How did the “thallium flux ratio, lower = inhibition” value turn out when `Cc1cccc(C(=O)Nc2cccc(NC(=O)c3ccncc3)c2)c1` was run?
A: inactive

Q: For `O=C(Nc1cccc(NC(=O)c2ccccc2)c1)c1ccccc1`, which “thallium flux ratio, lower = inhibition” value is on record?
A: inactive

Q: For `Cc1cccc(NC(=O)c2ccccc2NC(=O)c2ccccc2)c1`, which “thallium flux ratio, lower = inhibition” value is on record?
A: inactive

Q: `O=C(Nc1cccc(NC(=O)c2ccc(C(F)(F)F)cc2)c1)c1ccccc1` was tested. Which “thallium flux ratio, lower = inhibition” value did it give?
A: inactive

Q: For `CN(C)c1ccc(C(=O)Nc2cccc(NC(=O)c3ccccc3)c2)cc1`, which “thallium flux ratio, lower = inhibition” value is on record?
A: inactive

Q: Which “thallium flux ratio, lower = inhibition” value does the source give for `O=C(Nc1cccc(NC(=O)c2ccoc2)c1)c1ccccc1` here?
A: inactive

Q: With `Cc1cccc(C(=O)Nc2cccc(C(=O)Nc3ccccc3)c2)c1` as the compound, how does the “thallium flux ratio, lower = inhibition” value read?
A: inactive

Q: How did the “thallium flux ratio, lower = inhibition” value turn out when `CCOc1ccccc1NC(=O)c1cccc(NC(=O)C2CCOC2)c1` (centres undefined) was run?
A: inactive

Q: With `COc1ccc(C(=O)Nc2cccc(NC(=O)c3ccccc3)c2)cc1` as the compound, how does the “thallium flux ratio, lower = inhibition” value read?
A: inactive

Q: For `O=C(Nc1cccc(NC(=O)c2cccc(C(F)(F)F)c2)c1)c1ccccc1`, which “thallium flux ratio, lower = inhibition” value is on record?
A: inactive

Q: How did the “thallium flux ratio, lower = inhibition” value turn out when `Cc1cccc(S(=O)(=O)Nc2cccc(NC(=O)c3ccccc3)c2)c1` was run?
A: inactive

Q: How did the “thallium flux ratio, lower = inhibition” value turn out when `Cc1ccc(C(=O)Nc2cccc(NC(=O)c3ccccc3)c2)cc1` was run?
A: inactive

Q: For `Cc1cccc(C(=O)Nc2cccc(NC(=O)c3ccc(C(C)(C)C)cc3)c2)c1`, which “thallium flux ratio, lower = inhibition” value is on record?
A: inactive
